From patent US20250031679A1, “SCREENING METHOD OF PROBIOTIC AND ACTIVE SUBSTANCE FOR PROMOTING RE[…] AND USE” (Xuzhou Medical University, priority 2023, published 2025)

Test system: wild-type N2 C. elegans
Description: The synchronized L1-stage nematodes were diluted to 20 to 30 nematodes/10 μL. The L1-stage C. elegans was collected in the S broth and cultured in a 96-well plate (365 μL/well). 165 μL of medium, 20 μL of different concentrations of CTX treatment groups, 10 μL of L1-stage nematodes, and 5 μL of OP50 were added in sequence into the 96-well plate, and the nematodes were cultured in a biological incubator at 20° C. for 72 h, where each concentration was set with 10 groups in parallel.
The CTX was set up in three exposure groups from low to high, with concentrations being 500 μg/mL, 1 mg/mL, and 2 mg/mL. At the same time, a blank control was set up.
The nematodes treated with different concentrations of drugs were transferred to NGM, and only one nematode was placed on each medium. The one nematode was picked to a new medium every day with a worm picker. After nematodes produced by this one nematode on the old medium grew to adults, the number of nematodes on the NGM plates with different concentrations of CTX was counted until this one nematode no longer lay eggs. A sum of the number of nematodes exchanged every day was the number of eggs laid and hatched in a whole reproductive cycle of the nematode, and the reproductive capacity of the nematode was determined based on this.
L1-stage C. elegans was obtained according to the protocol in Example 1, and was treated with the CTX at a concentration of 1 mg/mL according to Example 1. Effect of treatment time on the reproductive capacity of the C. elegans was investigated.
Nematodes in L1 to L4 stages were used to construct models and the rest of the steps were conducted according to the method in Example 1.
At 20° C. a blank control group and a CTX treatment group were given pure OP50 bacterial solution and 1 mg/mL CTX/OP50 bacterial solution, respectively. Food were supplemented every 24 h, and whether the nematodes survived normally was observed. After treated in S broth for 72 h, the nematodes in the blank group and the CTX treatment group were transferred to NGM with food OP50, and one nematode was placed on each medium. The one nematode was picked to a new medium every day with a worm picker After nematodes produced by this one nematode on the old medium grew to adults, the number of nematodes on NGM plates of the blank group and the CTX treatment group was counted until this one nematode no longer lay eggs.

O=P1(N(CCCl)CCCl)NCCCO1 (centres unmarked) [CTX, cyclophosphamide]
reproductive capacity of C. elegans as a function of CTX concentration (500 μg/mL to 2 mg/mL, L1-stage, S broth, 72 h): decreased with the increase of concentration | total number of reproduced C. elegans compared with the control (CTX 1 mg/mL, 48 h to 96 h treatment): significantly reduced | reduction of reproductive capacity (total number of nematodes reproduced) compared with blank control group (CTX 1 mg/mL, L1-stage nematodes, S broth, 20° C., 72 h): 50% | total reproduced C. elegans (CTX 1 mg/mL, treated for 72 h): reduced to the minimum | fecundity of nematodes (drug treatment at different larval stages L1 to L4): significantly reduce the fecundity
